Test: xn = mol fraction of the nth substance listed

C=CCC[n+]1ccn(C)c1.[Br-] + O
viscosity [mPa·s], 101.33 kPa
Settings | x1 = 0.0009034 | x1 = 0.00189 | x1 = 0.003585 | x1 = 0.005487 | x1 = 0.007167 | x1 = 0.008848
293.15 K | 1.018 | 1.037 | 1.071 | 1.102 | 1.136 | 1.164
298.15 K | 0.904 | 0.92 | 0.95 | 0.977 | 1.007 | 1.031
303.15 K | 0.809 | 0.824 | 0.85 | 0.874 | 0.901 | 0.922
308.15 K | 0.73 | 0.742 | 0.765 | 0.788 | 0.811 | 0.83
313.15 K | 0.662 | 0.673 | 0.694 | 0.714 | 0.735 | 0.753

CCCCC(CC)COC(=O)c1ccc(C(=O)OCC(CC)CCCC)c(C(=O)OCC(CC)CCCC)c1 (centres undefined) + O
101 kPa
Settings | viscosity [mPa·s]
303.14 K, x2 = 0.019 | 151.1
303.15 K, x2 = 0.0111 | 152.7
303.15 K, x2 = 0.0169 | 151.2
303.16 K, x2 = 0.00366 | 153.9
303.16 K, x2 = 0.00372 | 153.9
303.16 K, x2 = 0.00843 | 153.1
303.16 K, x2 = 0.0124 | 152.2
303.16 K, x2 = 0.0155 | 151.6
303.16 K, x2 = 0.0164 | 151.4

CCN1CCCC1=O + O
101 kPa
Settings | viscosity [mPa·s]
298 K, x1 = 0.5 | 3.855
323 K, x1 = 0.9 | 1.435

CCn1cc[n+](C)c1.F[B-](F)(F)F + O
Settings | viscosity [mPa·s]
293.15 K, 101 kPa, x2 = 0.3047 | 19.25

COCCOCCO + O
viscosity [mPa·s]
Settings | 293.15 K | 303.15 K | 308.15 K | 313.15 K | 323.15 K
101.3 kPa, x1 = 0.0164 | 1.374 | 1.061 | – | 0.8527 | 0.6962
101.3 kPa, x1 = 0.0361 | 1.895 | 1.421 | – | 1.108 | 0.8862
101.3 kPa, x1 = 0.0603 | 2.602 | 1.916 | – | 1.445 | 1.131
101.3 kPa, x1 = 0.0909 | 3.571 | 2.525 | – | 1.858 | 1.441
101.3 kPa, x1 = 0.1298 | 4.594 | 3.232 | – | 2.367 | 1.782
101.3 kPa, x1 = 0.1836 | 5.705 | 3.941 | – | 2.848 | 2.114
101.3 kPa, x1 = 0.2589 | 6.431 | 4.445 | – | 3.193 | 2.366
101.3 kPa, x1 = 0.3739 | 6.442 | 4.514 | – | 3.269 | 2.451
101.3 kPa, x1 = 0.4594 | 6.083 | 4.337 | – | 3.174 | 2.412
101.3 kPa, x1 = 0.5736 | 5.544 | 4.024 | – | 2.994 | 2.296
101.3 kPa, x1 = 0.6641 | 5.108 | 3.753 | – | 2.849 | 2.204
101.3 kPa, x1 = 0.7397 | 4.791 | 3.554 | – | 2.724 | 2.122
101.3 kPa, x1 = 0.8287 | 4.441 | 3.341 | – | 2.594 | 2.031
101.3 kPa, x1 = 0.8794 | 4.286 | 3.239 | – | 2.511 | 1.987
101.3 kPa, x1 = 0.9331 | 4.149 | 3.143 | – | 2.455 | 1.955
101.33 kPa, x1 = 0.013 | – | – | 0.914 | – | –
101.33 kPa, x1 = 0.0426 | – | – | 1.445 | – | –
101.33 kPa, x1 = 0.058 | – | – | 1.73 | – | –
101.33 kPa, x1 = 0.0793 | – | – | 2.131 | – | –
101.33 kPa, x1 = 0.0999 | – | – | 2.476 | – | –
101.33 kPa, x1 = 0.1286 | – | – | 2.872 | – | –
101.33 kPa, x1 = 0.1865 | – | – | 3.333 | – | –
101.33 kPa, x1 = 0.3088 | – | – | 3.876 | – | –
101.33 kPa, x1 = 0.4518 | – | – | 3.836 | – | –
101.33 kPa, x1 = 0.5434 | – | – | 3.625 | – | –
101.33 kPa, x1 = 0.6518 | – | – | 3.448 | – | –
101.33 kPa, x1 = 0.7694 | – | – | 3.235 | – | –
101.33 kPa, x1 = 0.9087 | – | – | 2.996 | – | –
101.33 kPa, x2 = 0.0109 | – | – | 2.874 | – | –

Nc1ccc(S(=O)(=O)O)cc1 + O
101 kPa
Settings | viscosity [mPa·s]
298.15 K, x1 = 0.0001913 | 0.8949
298.15 K, x1 = 0.0003038 | 0.8969
298.15 K, x1 = 0.0004208 | 0.899
298.15 K, x1 = 0.0005447 | 0.8999
298.15 K, x1 = 0.0006999 | 0.9031
308.15 K, x1 = 0.000111 | 0.7215
308.15 K, x1 = 0.0001913 | 0.7221
308.15 K, x1 = 0.0003038 | 0.724
308.15 K, x1 = 0.0003839 | 0.7252
308.15 K, x1 = 0.0004208 | 0.7255
308.15 K, x1 = 0.0006999 | 0.7281
318.15 K, x1 = 0.0002046 | 0.5999
318.15 K, x1 = 0.0003685 | 0.601
318.15 K, x1 = 0.0005157 | 0.6033
318.15 K, x1 = 0.0006087 | 0.6041
318.15 K, x1 = 0.0006767 | 0.6049
318.15 K, x1 = 0.0007735 | 0.6055

Nc1ccc(S(N)(=O)=O)cc1 + O
viscosity [mPa·s], 101 kPa
Settings | x1 = 0.0001938 | x1 = 0.000331 | x1 = 0.0004378 | x1 = 0.0004556 | x1 = 0.000456 | x1 = 0.0005923 | x1 = 0.0007136
298.15 K | 0.8931 | 0.895 | 0.8965 | 0.897 | – | 0.899 | 0.9008
308.15 K | 0.7207 | 0.7224 | 0.7234 | 0.724 | – | 0.7254 | –
318.15 K | 0.5965 | 0.5979 | 0.5992 | – | 0.5993 | 0.6007 | 0.6015

O=C([O-])[C@H](O)[C@@H](O)[C@H](O)[C@H](O)CO.[Na+] + O
viscosity [mPa·s], 100 kPa
Settings | 298.15 K | 308.15 K | 318.15 K
x1 = 0.0004 | 0.8985 | 0.7295 | 0.6062
x1 = 0.0007 | 0.9101 | 0.7386 | 0.6138
x1 = 0.001 | 0.9193 | 0.7501 | 0.6218

From the CheMixHub viscosity set
